Laboratory results: patent US8642259B2, “Method for identifying substances capable of modulating the activity of a target molecule” (Sanofi-Aventis Deutschland GmbH, priority 2002, dated 2014)

Tests used:
[1] = test system: human M1 muscarinic receptor, somatostatin receptor 2 and EDG5
Method: The human GPCRs cloned into vector p426GPD are transformed into the appropriate yeast strain and incubated on SC selection plates without uracil and with 2% glucose as carbon source (SC/Gluc-Ura) at 30° C. for 3 days. The single cell colonies thus obtained are then utilized in order to inoculate 2 ml overnight cultures in SC/Gluc-Ura. The next day, the cells are diluted 1:100 in SC/Gluc-Ura-His pH 6.8. In the case of yeast strains using the FUS1 promoter for reporter gene expression, 2-10 mM 3-aminotriazole (3-AT, Sigma) are additionally added to said medium. In each case 90 μl of the diluted cell suspension are pipetted into a well of a 96-well microtiter plate, which already contains 10 μl of the ligand to be studied. The plates are incubated with or without shaking at 30° C. for 5-24 h. This is followed by adding to each well 50 μl of assay mix. The assay mix consists of 150 μg/ml digitonin (Sigma), 300 μg/ml chlorophenol red β-D-galactopyranoside (CPRG, Roche), 300 mM sodium phosphate buffer pH 6.7. After incubation with or without shaking at 30° C. for 2 h, β-galactosidase activity is measured as absorption at 574 nm in a spectrophotometer (Spectramax Plus, Molecular Devices). The data are analyzed and dose-response curves are drawn using the Graphpad Prism 3.0 computer program. All measurements are averages from triplicate determinations. […]

human GPCR EDG5 = molecular target: T1, human GPCR EDG5 (Homo sapiens, UniProt O95136); assay: Growth readout (FUS1-HIS3, turbidity at 630 nm), yeast strain YLJ21 expressing EDG5; assay type: cell-based; settings: 2 mM 3-AT; 23 h at 30° C.; FIG. 3B left-hand graph
T1 construct: expressed in transfected cells; host or cells: Saccharomyces cerevisiae strain YLJ21 (endogenous Gpa1), episomal vector p426GPD
Method: (§1) The human GPCRs cloned into vector p426GPD are transformed into the appropriate yeast strain and incubated on SC selection plates without uracil and with 2% glucose as carbon source (SC/Gluc-Ura) at 30° C. for 3 days. The single cell colonies thus obtained are then utilized in order to inoculate 2 ml overnight cultures in SC/Gluc-Ura. The next day, the cells are diluted 1:100 in SC/Gluc-Ura-His pH 6.8. In the case of yeast strains using the FUS1 promoter for reporter gene expression, 2-10 mM 3-aminotriazole (3-AT, Sigma) are additionally added to said medium. In each case 90 μl of the diluted cell suspension are pipetted into a well of a 96-well microtiter plate, which already contains 10 μl of the ligand to be studied. The plates are incubated with or without shaking at 30° C. for 5-24 h. […] All measurements are averages from triplicate determinations. […] The transformed yeasts were then cultivated in 2 ml of SC/Gluc-Ura at 30° C. overnight. The next day, the cultures were diluted 1:100 in SC/Gluc-Ura-His pH 6.8 medium without (FIG. 3A) or with 2 mM 3-AT (FIG. 3B). […] The turbidity resulting from growth of the yeast cells was measured at 630 nm in the photometer (FIGS. 3A and B, in each case left-hand graph).

human GPCR EDG1 = human GPCR EDG1 (Homo sapiens, UniProt P21453); assay: Growth readout (FUS1-HIS3, turbidity at 630 nm), yeast strain YLJ21 expressing EDG1; assay type: cell-based; settings: 2 mM 3-AT; 23 h at 30° C.; FIG. 3B left-hand graph
Chain of human GPCR EDG1 (P21453 whole entry): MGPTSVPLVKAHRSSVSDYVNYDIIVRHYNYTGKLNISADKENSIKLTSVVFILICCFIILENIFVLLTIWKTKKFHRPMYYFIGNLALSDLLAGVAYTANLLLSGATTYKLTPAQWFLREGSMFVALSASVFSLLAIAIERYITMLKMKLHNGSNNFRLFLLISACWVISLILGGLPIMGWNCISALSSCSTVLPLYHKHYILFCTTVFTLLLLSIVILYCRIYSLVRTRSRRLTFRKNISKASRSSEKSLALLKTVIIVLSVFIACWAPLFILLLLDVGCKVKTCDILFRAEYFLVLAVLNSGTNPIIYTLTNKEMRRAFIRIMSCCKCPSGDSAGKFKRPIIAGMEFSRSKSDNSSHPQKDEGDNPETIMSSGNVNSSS
Method: as §1

T1 sequence (O95136 whole entry): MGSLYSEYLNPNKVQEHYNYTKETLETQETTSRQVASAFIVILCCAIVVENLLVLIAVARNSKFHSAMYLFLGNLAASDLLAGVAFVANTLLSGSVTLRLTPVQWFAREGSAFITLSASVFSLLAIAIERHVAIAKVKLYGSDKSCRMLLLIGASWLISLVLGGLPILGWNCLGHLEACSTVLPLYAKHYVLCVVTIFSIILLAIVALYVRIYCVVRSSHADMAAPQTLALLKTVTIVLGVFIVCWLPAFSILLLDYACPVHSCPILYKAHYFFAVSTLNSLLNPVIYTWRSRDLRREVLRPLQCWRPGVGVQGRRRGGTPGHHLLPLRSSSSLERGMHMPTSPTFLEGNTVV

Row | Molecule | detection of the agonist in the receptor mixture [1] | dose dependence of the measured signal (turbidity at 630 nm) (human GPCR EDG5) | dose dependence of the measured signal (turbidity at 630 nm) (human GPCR EDG1)
1 | somatostatin-14 | can also be detected in the mixture | – | –
2 | CCCCCCCCCCCCC/C=C/[C@@H](O)[C@@H](N)COP(=O)(O)O [sphingosine 1-phosphate] | can also be detected in the mixture | level of the measured signal is dependent on the amount of sphingosine 1-phosphate | level of the measured signal is dependent on the amount of sphingosine 1-phosphate
